Assay results: patent US5773421A, “Antifungal fusacandins” (Abbott Laboratories, priority 1995, dated 1998)
Values after ≈ are worked out from the molar mass of the structure shown. Read-outs that look alike come from different tables or passages of the source.

Experiments:
[1] = MIC by broth dilution assay; format: cell-based; conditions: Table 6d, 2 ×10^5 organisms/mL
Protocol: Minimal inhibitory concentrations (MICs) were determined by a broth dilution assay described by Frost, D., Brandt, K., Cugier, D., and Goldman, R. in J. Antibiotics 48: 306-310 (1995) which is incorporated herein by reference. The final concentration of cells was 2 ×10^5 organisms/mL.

[2] = Minimum inhibitory concentration (MIC) stated with the glucan synthase screen; format: cell-based; conditions: organism not given
(1,3)-β-Glucan Synthase = target: T1, (1,3)-β-Glucan Synthase (Candida albicans, UniProt O13428); test: In vitro inhibition of (1,3)-β-glucan synthase activity, microsomal enzyme preparation; format: biochemical; conditions: C. albicans CCH 442 microsomal enzyme
T1 construct: microsomal enzyme preparation C. albicans CCH 442; endogenous in cells; host or cells: Candida albicans CCH 442, microsomes
T1 sequence (O13428 1-1897): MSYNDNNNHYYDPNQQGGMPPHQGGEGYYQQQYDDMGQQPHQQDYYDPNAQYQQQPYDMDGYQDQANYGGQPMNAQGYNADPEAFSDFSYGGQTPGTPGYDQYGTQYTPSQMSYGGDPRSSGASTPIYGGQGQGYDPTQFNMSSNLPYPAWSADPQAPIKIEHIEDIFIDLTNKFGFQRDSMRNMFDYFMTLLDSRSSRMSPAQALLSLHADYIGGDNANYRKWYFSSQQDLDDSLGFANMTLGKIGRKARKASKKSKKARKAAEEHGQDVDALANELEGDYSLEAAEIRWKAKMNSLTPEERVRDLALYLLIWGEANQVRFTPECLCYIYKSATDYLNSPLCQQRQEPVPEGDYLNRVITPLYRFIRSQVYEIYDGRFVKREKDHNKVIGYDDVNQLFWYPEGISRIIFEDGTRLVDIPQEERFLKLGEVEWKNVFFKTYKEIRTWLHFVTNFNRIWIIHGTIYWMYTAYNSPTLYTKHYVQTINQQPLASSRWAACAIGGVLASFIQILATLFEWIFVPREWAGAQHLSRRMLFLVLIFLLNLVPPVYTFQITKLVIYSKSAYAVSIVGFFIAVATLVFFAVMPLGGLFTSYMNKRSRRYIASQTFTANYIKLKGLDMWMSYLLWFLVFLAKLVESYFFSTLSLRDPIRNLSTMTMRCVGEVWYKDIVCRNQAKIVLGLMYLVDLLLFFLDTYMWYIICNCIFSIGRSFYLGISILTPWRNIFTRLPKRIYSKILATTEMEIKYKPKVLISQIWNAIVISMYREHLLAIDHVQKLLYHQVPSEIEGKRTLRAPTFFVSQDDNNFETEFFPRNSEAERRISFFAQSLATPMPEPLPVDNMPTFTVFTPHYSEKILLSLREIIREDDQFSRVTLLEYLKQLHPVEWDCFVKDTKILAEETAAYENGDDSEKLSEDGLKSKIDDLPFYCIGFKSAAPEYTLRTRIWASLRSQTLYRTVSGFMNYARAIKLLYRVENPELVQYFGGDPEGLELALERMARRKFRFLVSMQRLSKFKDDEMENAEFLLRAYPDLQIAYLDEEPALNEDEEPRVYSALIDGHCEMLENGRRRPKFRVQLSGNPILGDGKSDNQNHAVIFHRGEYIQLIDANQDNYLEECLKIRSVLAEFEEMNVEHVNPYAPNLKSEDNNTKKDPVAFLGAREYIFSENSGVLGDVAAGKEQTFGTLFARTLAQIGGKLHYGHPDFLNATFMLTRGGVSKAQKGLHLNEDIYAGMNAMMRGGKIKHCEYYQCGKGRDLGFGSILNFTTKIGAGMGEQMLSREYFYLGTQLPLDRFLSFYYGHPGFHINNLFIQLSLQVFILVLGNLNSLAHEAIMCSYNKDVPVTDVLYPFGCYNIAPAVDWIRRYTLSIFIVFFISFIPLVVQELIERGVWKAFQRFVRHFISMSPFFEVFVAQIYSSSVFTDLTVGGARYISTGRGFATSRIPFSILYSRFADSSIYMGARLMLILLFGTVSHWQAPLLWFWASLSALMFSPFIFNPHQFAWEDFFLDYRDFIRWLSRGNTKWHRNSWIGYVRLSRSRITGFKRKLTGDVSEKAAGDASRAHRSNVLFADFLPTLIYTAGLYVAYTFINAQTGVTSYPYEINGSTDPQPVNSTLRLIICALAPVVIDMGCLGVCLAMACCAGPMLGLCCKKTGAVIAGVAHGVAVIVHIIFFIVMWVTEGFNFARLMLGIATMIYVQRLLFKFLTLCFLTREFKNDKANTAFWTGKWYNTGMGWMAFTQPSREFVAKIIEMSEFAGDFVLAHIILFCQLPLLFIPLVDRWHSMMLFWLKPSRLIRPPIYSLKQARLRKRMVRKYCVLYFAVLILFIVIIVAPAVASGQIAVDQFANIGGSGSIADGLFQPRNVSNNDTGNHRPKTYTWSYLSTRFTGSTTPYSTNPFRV
Protocol: The assay was conducted in a final volume of 100 μL of 2.0 mM UDP-[^14 C]-Glc (0.625 mCi/mmol), 1 mM EDTA, 8% (v/v) glycerol, 20 μM GTPgS, 0.5% Brij-35(v/v) or 0.8% BSA, 80 mM Tris/HCl, pH 7.75, and microsomal enzyme preparation C. albicans CCH 442 (100 μg of protein). A detailed description of this assay is described by Frost, D., Brandt, K. Capobioanco, and Goldman, R., Microbiology 140: 2239-2246 (1994) which is incorporated herein by reference.

glucan synthase = target: T2, glucan synthase (Candida albicans, UniProt O13428); test: Microtiter screen for inhibitors of (1,3)-β-glucan formation in cell free extracts; format: biochemical; conditions: C. albicans microsomes, [14C]UDP-Glc, water-insoluble β-glucan product on filter
T2 construct: Microsomes isolated from mid-log phase grown yeast; endogenous in cells; host or cells: Candida albicans, mid-log phase yeast cells, microsomes
T2 sequence (O13428 1-1897): as above
Description: The fungal cell wall serves as a protective barrier and is essential for viability in a hypotonic environment. (1,3)-β-Glucan is a component of the Candida albicans cell wall, and the enzyme that biosynthesizes this polymer, glucan synthase, is not present in higher eukaryotes. (Glucan synthase is an integral plasma membrane protein that catalyzes polymerization of uridine diphosphate-glucose (UDP-Glc) into β-glucan.) Accordingly, glucan synthase represents an ideal target for the development of antifungal agents.
A microtiter screen was established to detect inhibitors of (1 ,3)-β-glucan formation in C. albicans cell free extracts. Microsomes isolated from mid-log phase grown yeast were incubated with [^14 C]UDP-Glc, effectors and test compound (fusacandin A, Example 4). The formation of the water-insoluble β-glucan product was measured on a filter after removing the substrate with water washes.

[3] = system: Candida albicans ATCC 62376; test: MIC by agar dilution method; format: cell-based; conditions: ATCC62376; Table 6c; V Candida albicans ATCC 62376; agar dilution; read-out: MIC V
Protocol: (§1) Minimal inhibitory concentrations (MICs) were determined by an agar dilution method. The test compounds were serially diluted in MeOH and 0.2 mL portions were mixed with 20 mL of molten, cooled Sabouraud dextrose agar (Difco). Yeast cell inoculum was prepared by growing cultures on Sabouraud dextrose agar for 18 hours at 32° C. and suspending the cells in phosphate buffered saline. Filamentous fungi were grown under the same conditions for 4 days to obtain spores. The inoculum level for all cultures was adjusted to 10^4 cells using a Petroff-Hauser cell counter. The glutarimide antifungal compounds cycloheximide or amphotericin B were used as a control. Inoculated test plates were incubated at 32° C. and examined after 20 hours.

Candida albicans CCH 442 = test: MIC by agar dilution method; format: cell-based; conditions: CCH442, agar dilution
Protocol: as §1

Candida albicans 579a = test: MIC by agar dilution method; format: cell-based
Protocol: as §1

[4] = system: Cryptococcus albidus ATCC 341; test: MIC by agar dilution method; format: cell-based; conditions: Naganishia albida, ATCC341, Table 6b, 32° C., 20 hours
Protocol: as §1

[5] = system: Candida albicans ATCC 38247; test: MIC by agar dilution method; format: cell-based; conditions: ATCC38247; Table 6c; IV Candida albicans ATCC 38247; agar dilution; read-out: MIC IV
Protocol: as §1

[6] = system: Candida tropicalis NRRL-Y-1; test: MIC by agar dilution method; format: cell-based; conditions: NRRLY1; Table 6b; Candida tropicalis NRRL Y-1; agar dilution, 32° C., 20 hours; read-out: MIC
Protocol: as §1

[7] = system: Candida albicans ATCC 623; test: MIC by agar dilution method; format: cell-based; conditions: ATCC623; Table 6b; Candida albicans ATCC 623; agar dilution, 32° C., 20 hours; read-out: MIC
Protocol: as §1

[8] = system: Candida albicans ATCC 102; test: MIC by agar dilution method; format: cell-based; conditions: ATCC102, 20 h
Protocol: as §1

Candida kefyr ATTC 288 = test: MIC by agar dilution method; format: cell-based; conditions: Kluyveromyces marxianus, ATCC288, 20 h
Protocol: as §1

[9] = system: Saccharomyces cereviseae GS1-36; test: MIC by agar dilution method; format: cell-based; conditions: GS136; Table 6b; Saccharomyces cereviseae GS1-36; agar dilution, 32° C., 20 hours; read-out: MIC
Protocol: as §1

[10] = system: Candida albicans ATCC 382; test: MIC by agar dilution method; format: cell-based; conditions: ATCC382, 20 h
Protocol: as §1

[11] = system: Torulopsis glabrata ATCC 155; test: MIC by agar dilution method; format: cell-based; conditions: Nakaseomyces glabratus, ATCC155; Table 6b; Torulopsis glabrata ATCC 155; agar dilution, 32° C., 20 hours; read-out: MIC
Protocol: as §1

[12] = system: Aspergillus niger ATCC 164; test: MIC by agar dilution method; format: cell-based; conditions: ATCC164; Table 6b; Aspergillus niger ATCC 164; agar dilution, 32° C., 20 hours; read-out: MIC
Protocol: as §1

[13] = system: Candida albicans ATCC 10231; test: MIC by agar dilution method; format: cell-based; conditions: ATCC10231; Table 6c; I Candida albicans ATCC 10231; agar dilution; read-out: MIC I
Protocol: as §1

[14] = Table 6b, Candida albicans CCH 442, 32° C., 20 hours, read-out: MIC
[15] = Table 6c, 3rd value column (head printed II), III Candida albicans CCH 442, read-out: MIC II
[16] = Table 6c, II Candida albicans 579a, agar dilution, read-out: MIC II

**Q.** For `CCC(O)/C=C/C=C/C=C/C(=O)OC[C@H]1O[C@@H](O[C@H]2[C@H](OC(=O)/C=C/C=C/CC(O)/C(C)=C/C=C/CCC(C)CC)[C@@H](O)[C@@]3(OCc4cc(O)cc(O)c43)O[C@@H]2CO)[C@H](O)[C@@H](O)[C@H]1O` (some centres unmarked) [Papulacandin B, papulacandin B, reference compound], which “MIC No sorbitol” value [1] is on record?
**A.** The value was 0.48 µg/mL (≈ 0.533 µM).

**Q.** And the “minimum inhibitory concentration (MIC)” value [2]?
**A.** Its value is 1.0 µg/mL (≈ 1.11 µM).

**Q.** What about the “IC50 With Brij-35” value ((1,3)-β-Glucan Synthase; 0.5% Brij-35) of the same compound?
**A.** Its value is 0.8 µg/mL (≈ 0.888 µM).

**Q.** What about the “IC50 With BSA” value ((1,3)-β-Glucan Synthase; 0.8% BSA) of the same compound?
**A.** The value was 16.3 µg/mL (≈ 18.1 µM).

**Q.** And the IC50 (glucan synthase)?
**A.** The IC50 was 3.6 µg/mL (≈ 4 µM).

**Q.** What does the source list for `CCCCC/C=C/C=C/C(O)C/C=C/C=C/C(=O)O[C@@H]1[C@@H](O)[C@H](c2c(O)cc(O)cc2CO)O[C@H](CO)[C@H]1O[C@@H]1O[C@H](CO)[C@H](O)[C@H](O)[C@H]1O[C@@H]1O[C@H](CO)[C@H](O)[C@H](O)[C@H]1O` (some centres unmarked) [Example 7, fusacandin B]?
**A.** MIC [3]: 50 µg/mL (≈ 57.3 µM); MIC (Candida albicans CCH 442; [14]): 50 µg/mL (≈ 57.3 µM); MIC (Candida albicans CCH 442; [15]): 25 µg/mL (≈ 28.6 µM); MIC (Candida albicans 579a; Candida albicans, 579A, 20 h): 50 µg/mL (≈ 57.3 µM); MIC (Candida albicans 579a; [16]): 25 µg/mL (≈ 28.6 µM); MIC [4]: > 100 µg/mL; MIC [5]: > 100 µg/mL; MIC [6]: 50 µg/mL (≈ 57.3 µM); MIC [7]: 100 µg/mL (≈ 115 µM); MIC [8]: 50 µg/mL (≈ 57.3 µM); MIC (Candida kefyr ATTC 288): 100 µg/mL (≈ 115 µM); MIC [9]: 50 µg/mL (≈ 57.3 µM); MIC [10]: > 100 µg/mL; MIC [11]: 100 µg/mL (≈ 115 µM); MIC [12]: > 100 µg/mL; MIC [13]: 50 µg/mL (≈ 57.3 µM)

**Q.** What does the source list for `C[C@@H]1[C@H](O)[C@@H](C)/C=C/C=C/C=C/C=C/C=C/C=C/C=C/[C@H](O[C@@H]2O[C@H](C)[C@@H](O)[C@H](N)[C@@H]2O)C[C@@H]2O[C@](O)(C[C@@H](O)C[C@@H](O)[C@H](O)CC[C@@H](O)C[C@@H](O)CC(=O)O[C@H]1C)C[C@H](O)[C@H]2C(=O)O` [Amphotericin B, amphotericin B, reference compound]?
**A.** MIC ([1]; 144 h, no sorbitol): 0.24 µg/mL (≈ 0.26 µM); MIC (Candida albicans CCH 442; [14]): 1.56 µg/mL (≈ 1.69 µM); MIC (Candida albicans 579a; Candida albicans, 579A, 20 h): 1.56 µg/mL (≈ 1.69 µM); MIC [4]: 3.12 µg/mL (≈ 3.38 µM); MIC [6]: 1.56 µg/mL (≈ 1.69 µM); MIC [7]: 1.56 µg/mL (≈ 1.69 µM); MIC [8]: 1.56 µg/mL (≈ 1.69 µM); MIC (Candida kefyr ATTC 288): 1.56 µg/mL (≈ 1.69 µM); MIC [9]: 1.56 µg/mL (≈ 1.69 µM); MIC [10]: 50 µg/mL (≈ 54.1 µM); MIC [11]: 1.56 µg/mL (≈ 1.69 µM); MIC [12]: 1.56 µg/mL (≈ 1.69 µM)

**Q.** Which MIC [3] does the source give for `CCCCC/C=C/C=C/[C@@H](O)C/C=C/C=C/C(=O)O[C@@H]1[C@@H](O)[C@H](c2c(O)cc(O)cc2CO)O[C@H](CO)[C@H]1O[C@@H]1O[C@H](COC(=O)c2ccccc2)[C@H](O)[C@H](O)[C@H]1O[C@@H]1O[C@H](CO)[C@H](O)[C@H](O)[C@H]1O` [Example 14] here?
**A.** Its MIC is 12.5 µg/mL (≈ 12.8 µM).

**Q.** And the MIC (Candida albicans CCH 442; [15])?
**A.** The MIC was 12.5 µg/mL (≈ 12.8 µM).

**Q.** And the MIC (Candida albicans 579a; [16])?
**A.** Its MIC is 6.25 µg/mL (≈ 6.4 µM).

**Q.** What about the MIC [5] of the same compound?
**A.** The MIC was 6.25 µg/mL (≈ 6.4 µM).

**Q.** What about the MIC [13] of the same compound?
**A.** The MIC was 12.5 µg/mL (≈ 12.8 µM).
